Data: patent US8853406B2, “Substituted phenylenediamines as inhibitors of the interaction between MDM2 and P53” (Janssen Pharmaceutica NV, priority 2007, dated 2014)

Experiments:
Assay type in all cases: physicochemical
[1] = Crystallographic stability of Form I (TGA, DSC, XRPD, IR after storage); set-up: key to XRD / IR: ~Ref: identical with reference; Cryst.: crystalline
Method: The crystallographic stability of Form I of compound No. 1 was studied according to the following procedure:
after storage of the compound in open conditions for a period of six weeks at room temperature (RT) under <5%, 56% and 75% relative humidity (RH), 50° C. and 40° C./75% RH., the samples were analyzed with thermogravimetry (TGA), differential scanning calorimetry (DSC), X-ray powder diffraction (XRPD) and infrared spectroscopy (IR).

[2] = Chemical stability of Form I (HPLC and visual inspection after storage)
Method: The chemical stability of Form I of compound No. 1 was studied according to the following procedure:
Form I was stored in different open conditions for periods of 1, 4 and 8 weeks. These conditions are 40° C./75% RH, 50° C., RT/<5% RH, RT/56% RH, RT/75% RH and 0.3 da ICH light.
The compounds were analyzed after storage by HPLC and by visual inspection.

[3] = Slurry conversion experiment; conditions: various solvents, 50° C., 24 hours
Method: Concentrated/saturated solutions of compound No. 1 drug substance were prepared at 50° C. in 13 different solvents (water, methanol, ethanol, 2-propanol, acetone, acetonitrile, toluene, tetrahydrofuran, dichloromethane, 2-butanone, ethyl acetate, dimethylformamide, 1-methoxy-2-propanol) to support the automated polymorph screen. […] The slurry solids were retrieved from their solvent systems, dried under an air stream, placed under vacuum at room temperature overnight, and then analyzed for slurry conversion using XRD.

[4] = Physical properties of the solid state forms
Method: Form I was denoted as a crystalline, non-hygroscopic solid that melts at approximately 192° C. Form II was described as a crystalline solid with a melting point at approximately 186° C.

**Q.** What does the source list for Cc1cc(Nc2ccnc3c2CCC3O)ccc1NCCc1c[nH]c2c(C)cccc12 (centres unmarked) [Form I]?
**A.** App ([1]; 0 days): brown-grey; DSC Max ([1]; 0 days): 192.1 °C; DSC ΔH ([1]; 0 days): 122 J/g; IR ([1]; 0 days): Cryst., Ref; TGA <175° C. ([1]; 0 days): 0.05%; TGA <225° C. ([1]; 0 days): 0.19%; XRD ([1]; 0 days): Cryst., Ref; crystallographic stability ([1]; open storage six weeks, all conditions): crystallographically stable; App ([1]; six weeks open, 40° C./75% RH): brown-grey; DSC Max ([1]; six weeks open, 40° C./75% RH): 191.7 °C; DSC ΔH ([1]; six weeks open, 40° C./75% RH): 123 J/g; IR ([1]; six weeks open, 40° C./75% RH): ~Ref; TGA <175° C. ([1]; six weeks open, 40° C./75% RH): 0.06%; TGA <225° C. ([1]; six weeks open, 40° C./75% RH): 0.19%; XRD ([1]; six weeks open, 40° C./75% RH): ~Ref; App ([1]; six weeks open, 50° C.): brown-grey; DSC Max ([1]; six weeks open, 50° C.): 191.6 °C; DSC ΔH ([1]; six weeks open, 50° C.): 122 J/g; IR ([1]; six weeks open, 50° C.): ~Ref; TGA <175° C. ([1]; six weeks open, 50° C.): 0%; TGA <225° C. ([1]; six weeks open, 50° C.): 0.2%; XRD ([1]; six weeks open, 50° C.): ~Ref; App ([1]; six weeks open, RT/56% RH): brown-grey; DSC Max ([1]; six weeks open, RT/56% RH): 191.8 °C; DSC ΔH ([1]; six weeks open, RT/56% RH): 108 J/g; IR ([1]; six weeks open, RT/56% RH): ~Ref; TGA <175° C. ([1]; six weeks open, RT/56% RH): 0.15%; TGA <225° C. ([1]; six weeks open, RT/56% RH): 0.2%; XRD ([1]; six weeks open, RT/56% RH): ~Ref; App ([1]; six weeks open, RT/75 % RH): brown-grey; DSC Max ([1]; six weeks open, RT/75 % RH): 191.7 °C; DSC ΔH ([1]; six weeks open, RT/75 % RH): 112 J/g; IR ([1]; six weeks open, RT/75 % RH): ~Ref; TGA <175° C. ([1]; six weeks open, RT/75 % RH): 0.14%; TGA <225° C. ([1]; six weeks open, RT/75 % RH): 0.25%; XRD ([1]; six weeks open, RT/75 % RH): ~Ref; App ([1]; six weeks open, RT/<5% RH): brown-grey; DSC Max ([1]; six weeks open, RT/<5% RH): 191.7 °C; DSC ΔH ([1]; six weeks open, RT/<5% RH): 125 J/g; IR ([1]; six weeks open, RT/<5% RH): ~Ref; TGA <175° C. ([1]; six weeks open, RT/<5% RH): 0%; TGA <225° C. ([1]; six weeks open, RT/<5% RH): 0.31%; XRD ([1]; six weeks open, RT/<5% RH): ~Ref; Appearance ([2]; 0.3da ICH light (1 week)): brown-grey; HPLC Sum of impurities ([2]; 0.3da ICH light (1 week)): 0.18%; Appearance ([2]; 40° C./75% RH, 1 week): brown-grey; HPLC Sum of impurities ([2]; 40° C./75% RH, 1 week): 0.13%; Appearance ([2]; 40° C./75% RH, 4 weeks): brown-grey; HPLC Sum of impurities ([2]; 40° C./75% RH, 4 weeks): 0.14%; Appearance ([2]; 40° C./75% RH, 8 weeks): brown-grey; HPLC Sum of impurities ([2]; 40° C./75% RH, 8 weeks): 0.2%; Appearance ([2]; 50° C., 1 week): brown-grey; HPLC Sum of impurities ([2]; 50° C., 1 week): 0.28%; Appearance ([2]; 50° C., 4 weeks): brown-grey; HPLC Sum of impurities ([2]; 50° C., 4 weeks): 0.14%; Appearance ([2]; 50° C., 8 weeks): brown-grey; HPLC Sum of impurities ([2]; 50° C., 8 weeks): 0.24%; Appearance ([2]; RT/56% RH, 4 weeks): brown-grey; HPLC Sum of impurities ([2]; RT/56% RH, 4 weeks): 0.22%; Appearance ([2]; RT/56% RH, 8 weeks): brown-grey; HPLC Sum of impurities ([2]; RT/56% RH, 8 weeks): 0.24%; Appearance ([2]; RT/75% RH, 4 weeks): brown-grey; HPLC Sum of impurities ([2]; RT/75% RH, 4 weeks): 0.2%; Appearance ([2]; RT/75% RH, 8 weeks): brown-grey; HPLC Sum of impurities ([2]; RT/75% RH, 8 weeks): 0.18%; Appearance ([2]; RT/<5% RH, 4 weeks): brown-grey; HPLC Sum of impurities ([2]; RT/<5% RH, 4 weeks): 0.19%; Appearance ([2]; RT/<5% RH, 8 weeks): brown-grey; HPLC Sum of impurities ([2]; RT/<5% RH, 8 weeks): 0.24%; Appearance ([2]; Reference (1 week)): brown-grey; HPLC Sum of impurities ([2]; Reference (1 week)): 0.23%; chemical stability ([2]; open storage 1, 4 and 8 weeks, all investigated conditions): chemically stable in all investigated conditions; form conversion when slurried [3]: No form conversion was observed; hygroscopicity [4]: non-hygroscopic
